Source: patent US10233158B2, “Arylalkyl- and aryloxyalkyl-substituted epithelial sodium channel blocking compounds” (Parion Sciences, Inc., priority 2013, dated 2019)

Experiments:
ENaC = target: T1, ENaC (Canis lupus familiaris, UniProt A0A8I3MKE6+A0A8I3Q679+Q95165); test: Inhibition of short-circuit current (ISC) and reversibility, bronchial epithelial monolayers in Ussing chamber, canine cells; type: cell-based; details: canine bronchial epithelial cells (CBE); mean ± SD (n)
T1 sequence (A0A8I3Q679 1-649): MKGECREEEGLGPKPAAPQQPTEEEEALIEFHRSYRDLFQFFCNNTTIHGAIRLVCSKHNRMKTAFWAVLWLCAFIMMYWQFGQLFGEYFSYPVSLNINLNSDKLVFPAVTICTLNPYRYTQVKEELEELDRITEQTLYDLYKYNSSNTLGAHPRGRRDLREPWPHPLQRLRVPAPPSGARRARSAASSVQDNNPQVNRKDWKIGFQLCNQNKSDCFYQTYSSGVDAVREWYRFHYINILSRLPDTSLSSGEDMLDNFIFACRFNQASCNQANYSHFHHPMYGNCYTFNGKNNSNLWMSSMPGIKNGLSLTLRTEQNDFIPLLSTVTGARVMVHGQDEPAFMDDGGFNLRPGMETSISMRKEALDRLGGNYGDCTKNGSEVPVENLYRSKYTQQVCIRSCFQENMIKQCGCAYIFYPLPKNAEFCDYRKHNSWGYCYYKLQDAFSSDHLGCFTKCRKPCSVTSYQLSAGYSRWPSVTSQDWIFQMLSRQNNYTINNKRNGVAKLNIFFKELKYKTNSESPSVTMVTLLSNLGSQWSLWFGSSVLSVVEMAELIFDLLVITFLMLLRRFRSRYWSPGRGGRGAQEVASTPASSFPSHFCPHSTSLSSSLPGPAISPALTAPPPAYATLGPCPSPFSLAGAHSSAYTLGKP
T1 sequence (Q95165 1-641): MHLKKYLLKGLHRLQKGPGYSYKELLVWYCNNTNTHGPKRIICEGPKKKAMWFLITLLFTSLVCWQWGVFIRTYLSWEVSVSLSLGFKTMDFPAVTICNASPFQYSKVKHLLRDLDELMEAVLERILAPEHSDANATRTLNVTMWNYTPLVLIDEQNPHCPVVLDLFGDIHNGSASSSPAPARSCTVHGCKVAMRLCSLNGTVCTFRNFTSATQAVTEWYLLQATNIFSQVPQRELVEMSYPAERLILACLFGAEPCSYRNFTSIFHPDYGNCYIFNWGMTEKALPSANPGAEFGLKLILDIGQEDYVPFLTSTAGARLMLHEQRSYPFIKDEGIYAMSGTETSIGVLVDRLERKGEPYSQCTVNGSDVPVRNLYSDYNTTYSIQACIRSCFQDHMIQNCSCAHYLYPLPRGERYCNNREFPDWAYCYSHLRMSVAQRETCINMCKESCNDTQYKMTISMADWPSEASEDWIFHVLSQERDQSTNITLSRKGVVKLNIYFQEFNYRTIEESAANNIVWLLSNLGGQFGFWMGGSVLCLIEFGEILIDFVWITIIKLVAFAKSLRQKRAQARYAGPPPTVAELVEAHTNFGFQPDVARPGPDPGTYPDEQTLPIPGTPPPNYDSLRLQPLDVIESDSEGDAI
T1 sequence (A0A8I3MKE6 1-646): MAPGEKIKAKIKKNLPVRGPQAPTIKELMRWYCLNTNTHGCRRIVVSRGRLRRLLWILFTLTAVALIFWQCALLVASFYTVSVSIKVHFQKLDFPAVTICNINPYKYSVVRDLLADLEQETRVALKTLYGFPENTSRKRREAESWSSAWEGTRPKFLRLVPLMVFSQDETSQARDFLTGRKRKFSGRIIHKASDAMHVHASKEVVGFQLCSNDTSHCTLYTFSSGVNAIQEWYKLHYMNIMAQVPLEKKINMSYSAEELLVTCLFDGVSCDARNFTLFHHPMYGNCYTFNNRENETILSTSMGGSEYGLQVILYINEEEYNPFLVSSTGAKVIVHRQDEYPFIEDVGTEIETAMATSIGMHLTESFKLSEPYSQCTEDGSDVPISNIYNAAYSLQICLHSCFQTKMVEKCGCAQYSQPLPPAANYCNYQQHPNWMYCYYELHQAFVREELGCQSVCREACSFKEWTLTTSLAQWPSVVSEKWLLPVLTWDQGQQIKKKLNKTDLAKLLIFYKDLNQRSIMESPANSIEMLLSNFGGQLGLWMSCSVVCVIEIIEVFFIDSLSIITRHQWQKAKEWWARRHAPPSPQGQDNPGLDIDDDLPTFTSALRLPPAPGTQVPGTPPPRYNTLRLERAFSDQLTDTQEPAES
Procedure: One assay used to assess mechanism of action and/or potency of the compounds of the present invention involves the determination of luminal drug inhibition of airway epithelial sodium currents measured under short circuit current (ISC) using airway epithelial monolayers mounted in Ussing chambers. Cells are obtained from freshly excised human, canine, sheep or rodent airways.
Inhibition of transcellular sodium movement through ENaC was measured using polarized bronchial epithelial cell monolayers mounted in a modified Ussing chamber. Primary cultures of canine or human bronchial epithelial cells grown using an air-liquid interface were tested under voltage clamp conditions. The short-circuit current (ISC) was measured as an index of transepithelial sodium transport to assess potency.
Recovery of short circuit current (ISC) from maximal block was used as an indirect measurement of drug off-rate.

Muc5B = Muc5B (Homo sapiens, UniProt Q9HC84); details: in vitro; cited from earlier work

SMILES | IC50 (ENaC) [nM] | concentration required to fully reduce Muc5B (Muc5B) [mM]
N=C(NCCCCc1ccc(CCCN(CCCc2ccccc2)C[C@H](O)[C@@H](O)[C@H](O)[C@H](O)CO)cc1)NC(=O)c1nc(Cl)c(N)nc1N [Compound 40, 3,5-diamino-6-chloro-N—(N-(4-(4-(3-(((2S,3R,4R,5R)-2,3,4,5,6-pentahydroxyhexyl)(3-phenylpropyl)amino)propyl)phenyl)butyl)carbamimidoyl)pyrazine-2-carboxamide] | 11.8 ± 8.2 | 
CC(=O)N[C@@H](CS)C(=O)O [NAC, N-acetyl cysteine] |  | 200
N=C(NCCCCc1ccc(OCCN(CCCc2ccccc2)C[C@H](O)[C@@H](O)[C@H](O)[C@H](O)CO)cc1)NC(=O)c1nc(Cl)c(N)nc1N [Compound 12, 3,5-diamino-6-chloro-N—(N-(4-(4-(2-(((2S,3R,4R,5R)-2,3,4,5,6-pentahydroxyhexyl)(3-phenylpropyl)amino)ethoxy)phenyl)butyl)carbamimidoyl)pyrazine-2-carboxamide] | 6.6 ± 7 | 
N=C(NCCCCc1ccc(OCCN(CCCc2ccc3ccccc3c2)C[C@H](O)[C@@H](O)[C@H](O)[C@H](O)CO)cc1)NC(=O)c1nc(Cl)c(N)nc1N [Compound 17, 3,5-diamino-6-chloro-N—(N-(4-(4-(2-((3-(naphthalen-2-yl)propyl)((2S,3R,4R,5R)-2,3,4,5,6-pentahydroxyhexyl)amino)ethoxy)phenyl)butyl)carbamimidoyl)pyrazine-2-carboxamide] | 5.6 ± 9 | 
N=C(NCCCCc1ccc(OCCN(CCCc2cccc3ccccc23)C[C@H](O)[C@@H](O)[C@H](O)[C@H](O)CO)cc1)NC(=O)c1nc(Cl)c(N)nc1N [Compound 27, 3,5-diamino-6-chloro-N—(N-(4-(4-(2-((3-(naphthalen-1-yl)propyl)((2S,3R,4R,5R)-2,3,4,5,6-pentahydroxyhexyl)amino)ethoxy)phenyl)butyl)carbamimidoyl)pyrazine-2-carboxamide] | 5.9 ± 4.8 | 
